Source: US9072734B2, “Quaternary ammonium salt compounds” (Teijin Pharma Limited, priority 2009, dated 2015)
Structures can show the parent of a compound that is named as a salt.

Columns and labels:
[1] = target: T1, human M3 muscarinic receptor (Homo sapiens, UniProt P20309); experiment: Inhibitory effect on methacholine-induced calcium influx, FLIPR assay, CHO-K1 cells stably expressing the human M3 muscarinic receptor; type: cell-based; settings: inhibition of calcium influx induced by methacholine
T1 construct: expressed in transfected cells; host or cells: CHO-K1
Outline: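 Dye-loaded hM3 CHO-K1 cells were preincubated 180 s with compound solutions prepared at 10 two-fold concentrations (0.01–1000 nM). A 30 nM methacholine solution was then added. Fluorescence was traced for 170 s; max−min signal gave % inhibition against agonist and no-agonist controls, and IC50 came from a four-parameter logistic fit.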

[2] = target: T2, human β2 adrenergic receptor (Homo sapiens, UniProt P07550); experiment: Whole-cell cAMP Flashplate assay using CHO-K1 cells stably expressing human β2 adrenergic receptor; type: cell-based; settings: cAMP production
T2 construct: expressed in transfected cells; host or cells: CHO-K1

[3] = test system: acetylcholine-induced bronchoconstriction in guinea pigs; experiment: Effects on acetylcholine-induced bronchoconstriction in guinea pigs; type: in vivo, guinea pig; settings: Cavia porcellus; 24 hours after 25 μg/kg of the compounds were administered; read-out: percentage of bronchoconstriction suppression with respect to the acetylcholine stimulation
Protocol: These in vivo assays are used to evaluate the bronchoprotective effects based on the M3 muscarinic receptor antagonist activity and the β2 adrenergic receptor agonist activity of test compounds. Hartley male guinea pigs (Nippon SLC, Inc.) weighing about 400-500 g were used. The animals were anesthetized by inhalation of Fluothane (Takeda Pharmaceutical Company Limited) in a plastic box. The test compounds were dissolved in physiological saline containing DMSO, and administered through the nasal cavity into the trachea at a dose of 0.04-25 μg/kg and at a volume of 0.4 mL/kg. For control animals, solvent without a test compound was administered. In general, animals awake several minutes after completion of the administration. The animals were anesthetized with an intraperitoneal administration of 33% urethane/0.8% α-chloralose at a dose of 3 mL/kg. In order to intravenously administer acetylcholine or histamine, a catheter was inserted into the carotid artery. In order to measure artificial respiration and airway ventilation pressure, a cannula was inserted into the trachea. Artificial respiration was applied to the animals at a volume of 10 mL/kg and at a frequency of 60/minute, using a ventilator (Harvard Apparatus). The airway ventilation pressure was measured by the Konzett-Roessler method using a general respiratory function analysis system (M.I.P.S). Prior to administration of acetylcholine or histamine, the airway ventilation pressure was measured and baseline values were recorded. Then, physiological saline was administered through the carotid artery catheter at a volume of 0.4 mL/kg, and the airway ventilation pressure was measured. Bronchoconstrictor response was induced by administering acetylcholine (40 μg/kg, 0.4 mL/kg) or histamine (15 μg/kg, 0.4 mL/kg) through the carotid artery catheter one hour after the administration of the test compounds, and the airway ventilation pressure at the maximum contractile response was recorded. In addition, in order to evaluate duration of action of the test compounds, the above-mentioned dose of acetylcholine or histamine was administered, 1 hour, 6 hours, 12 hours, 18 hours, and 24 hours after the administration of test compounds, and the airway ventilation pressure was measured in the same way. The percentage of suppression by the test compounds with respect to the airway contractile response was calculated according to the following formula. (%) Percentage of the airway constriction suppression=(Airway ventilation pressure of test compound-dosed and acetylcholine- or histamine-dosed animals−Baseline value)/(Airway ventilation pressure of acetylcholine- or histamine-dosed animals−Baseline value)×100
The 50% inhibitory doses (ID50 values) of the test compounds were analyzed by a sigmoidal logistic model using XLfit4 (IDBS, Ltd.) for the percentage of the bronchoconstriction suppression at different doses of the test compounds.

T1 sequence (P20309 whole entry): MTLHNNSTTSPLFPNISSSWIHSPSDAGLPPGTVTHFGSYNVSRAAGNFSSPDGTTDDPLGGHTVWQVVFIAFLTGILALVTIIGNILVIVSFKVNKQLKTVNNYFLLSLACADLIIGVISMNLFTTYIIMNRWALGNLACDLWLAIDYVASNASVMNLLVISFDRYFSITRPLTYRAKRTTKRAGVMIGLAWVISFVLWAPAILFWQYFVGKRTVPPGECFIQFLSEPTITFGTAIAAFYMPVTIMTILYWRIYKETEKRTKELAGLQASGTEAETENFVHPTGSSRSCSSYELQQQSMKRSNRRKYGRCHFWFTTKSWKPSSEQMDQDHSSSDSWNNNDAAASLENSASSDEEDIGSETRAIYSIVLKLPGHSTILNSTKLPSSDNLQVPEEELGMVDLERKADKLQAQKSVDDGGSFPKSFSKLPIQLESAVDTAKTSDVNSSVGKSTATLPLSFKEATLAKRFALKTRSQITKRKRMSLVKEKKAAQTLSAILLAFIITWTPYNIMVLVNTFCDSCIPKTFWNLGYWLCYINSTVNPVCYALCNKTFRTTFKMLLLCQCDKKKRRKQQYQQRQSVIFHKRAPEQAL
T2 sequence (P07550 whole entry): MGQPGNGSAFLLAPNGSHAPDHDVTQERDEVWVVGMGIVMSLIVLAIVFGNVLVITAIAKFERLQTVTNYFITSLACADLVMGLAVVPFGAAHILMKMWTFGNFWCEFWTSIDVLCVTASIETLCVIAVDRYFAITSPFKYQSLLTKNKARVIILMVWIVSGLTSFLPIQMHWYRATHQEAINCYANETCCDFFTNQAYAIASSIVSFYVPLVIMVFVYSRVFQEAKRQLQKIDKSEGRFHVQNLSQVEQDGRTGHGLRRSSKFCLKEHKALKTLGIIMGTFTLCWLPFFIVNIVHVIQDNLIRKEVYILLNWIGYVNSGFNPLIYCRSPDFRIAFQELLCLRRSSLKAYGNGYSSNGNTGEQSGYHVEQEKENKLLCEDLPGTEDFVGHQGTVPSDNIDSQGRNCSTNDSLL

Structure (SMILES)	IC50 [1]	EC50 [2]	inhibition in vivo at 0.025 mg/kg [3]
COc1cc(NC(=O)CCCc2ccc(-c3ccccc3)c(NC(=O)OC3CC[N+](C)(C)CC3)c2)c(Cl)cc1CNC[C@H](O)c1ccc(O)c2[nH]c(=O)ccc12 [Example 18, 4-({[5-(3-{[2-chloro-4-({[(2R)-2-hydroxy-2-(8-hydroxy-2-oxo-1,2-dihydroquinolin-5-yl)ethyl]amino}methyl)-5-methoxyphenyl]carbamoyl}propyl)-2-phenylphenyl]carbamoyl}oxy)-1,1-dimethylpiperidin-1-ium trifluoroacetate]	8.9 nM	0.6 nM	≥ 50%
C[N+]1(C)CCC(OC(=O)Nc2cc(CCCOc3ccc(CCNC[C@H](O)c4ccc(O)c5[nH]c(=O)ccc45)cc3)ccc2-c2ccccc2)CC1 [Example 77, 4-{[(5-{3-[4-(2-{[(2R)-2-hydroxy-2-(8-hydroxy-2-oxo-1,2-dihydroquinolin-5-yl)ethyl]amino}ethyl)phenoxy]propyl}-2-phenylphenyl)carbamoyl]oxy}-1,1-dimethylpiperidin-1-ium trifluoroacetate]	36.3 nM	1.5 nM	≥ 50%
COc1cc(NC(=O)CCCc2ccc(-c3ccccc3)c(NC(=O)OC3CC[N+](C)(C)CC3)c2)ccc1CNC[C@H](O)c1ccc(O)c2[nH]c(=O)ccc12 [Example 20, 4-({[5-(3-{[4-({[(2R)-2-hydroxy-2-(8-hydroxy-2-oxo-1,2-dihydroquinolin-5-yl)ethyl]amino}methyl)-3-methoxyphenyl]carbamoyl}propyl)-2-phenylphenyl]carbamoyl}oxy)-1,1-dimethylpiperidin-1-ium trifluoroacetate]	16.8 nM	2.6 nM	≥ 50%
COc1cc(NC(=O)CCc2ccc(-c3ccccc3)c(NC(=O)OC3CC[N+](C)(C)CC3)c2)c(Cl)cc1CNC[C@H](O)c1ccc(O)c2[nH]c(=O)ccc12 [Example 2, 4-({[5-(2-{[2-chloro-4-({[(2R)-2-hydroxy-2-(8-hydroxy-2-oxo-1,2-dihydroquinolin-5-yl)ethyl]amino}methyl)-5-methoxyphenyl]carbamoyl}ethyl)-2-phenylphenyl]carbamoyl}oxy)-1,1-dimethylpiperidin-1-ium trifluoroacetate]	19.3 nM	1.1 nM	≥ 50%
COc1cc(NC(=O)CCCc2ccc(-c3ccccc3)c(NC(=O)OC3CC[N+](C)(C)CC3)c2)c(Br)cc1CNC[C@H](O)c1ccc(O)c2[nH]c(=O)ccc12 [Example 25, 4-({[5-(3-{[2-bromo-4-({[(2R)-2-hydroxy-2-(8-hydroxy-2-oxo-1,2-dihydroquinolin-5-yl)ethyl]amino}methyl)-5-methoxyphenyl]carbamoyl}propyl)-2-phenylphenyl]carbamoyl}oxy)-1,1-dimethylpiperidin-1-ium trifluoroacetate]	19 nM	0.4 nM	≥ 50%

More lines, main results first:

IC50 [1]	EC50 [2]	Structure (SMILES)	inhibition in vivo at 0.025 mg/kg [3]
8.7 nM	1.2 nM	C[N+]1(C)CCC(OC(=O)Nc2cc(CCCC(=O)Nc3ccc(CNC[C@H](O)c4ccc(O)c5[nH]c(=O)ccc45)cc3Cl)ccc2-c2ccccc2)CC1 [Example 19, 4-({[5-(3-{[2-chloro-4-({[(2R)-2-hydroxy-2-(8-hydroxy-2-oxo-1,2-dihydroquinolin-5-yl)ethyl]amino}methyl)phenyl]carbamoyl}propyl)-2-phenylphenyl]carbamoyl}oxy)-1,1-dimethylpiperidin-1-ium trifluoroacetate]	≥ 50%
9 nM	1.7 nM	COc1cc(NC(=O)CCc2ccc(-c3ccccc3)c(NC(=O)OC3CC[N+](C)(C)CC3)c2)ccc1CNC[C@H](O)c1ccc(O)c2[nH]c(=O)ccc12 [Example 6, 4-({[5-(2-{[4-({[(2R)-2-hydroxy-2-(8-hydroxy-2-oxo-1,2-dihydroquinolin-5-yl)ethyl]amino}methyl)-3-methoxyphenyl]carbamoyl}ethyl)-2-phenylphenyl]carbamoyl}oxy)-1,1-dimethylpiperidin-1-ium trifluoroacetate]	≥ 50%
26.4 nM	4.6 nM	C[N+]1(C)CCC(OC(=O)Nc2cc(CCC(=O)Nc3ccc4cc(CNC[C@H](O)c5ccc(O)c6[nH]c(=O)ccc56)ccc4c3)ccc2-c2ccccc2)CC1 [Example 12, 4-({[5-(2-{[6-({[(2R)-2-hydroxy-2-(8-hydroxy-2-oxo-1,2-dihydroquinolin-5-yl)ethyl]amino}methyl)naphthalen-2-yl]carbamoyl}ethyl)-2-phenylphenyl]carbamoyl}oxy)-1,1-dimethylpiperidin-1-ium trifluoroacetate]	≥ 50%
